Laboratory results taken from patent publication US10921327B2, “Probes for quantitative imaging of thiols in various environments” (Baylor College of Medicine, priority 2014, dated 2021).
“And” between values parts separate entries of the source, which are not always exact repeats. Identical values can stand only once.

What was measured:
[1] = Solubility; assay type: physicochemical; conditions: PBS buffer, aqueous buffer
[2] = target: BSA (Bos taurus, UniProt P02769); experiment: Reaction specificity of TQ Green: BSA; set-up: species or system bovine; conditions: 5 mM BSA, PBS pH 7.4
Sequence of BSA (P02769 25-607): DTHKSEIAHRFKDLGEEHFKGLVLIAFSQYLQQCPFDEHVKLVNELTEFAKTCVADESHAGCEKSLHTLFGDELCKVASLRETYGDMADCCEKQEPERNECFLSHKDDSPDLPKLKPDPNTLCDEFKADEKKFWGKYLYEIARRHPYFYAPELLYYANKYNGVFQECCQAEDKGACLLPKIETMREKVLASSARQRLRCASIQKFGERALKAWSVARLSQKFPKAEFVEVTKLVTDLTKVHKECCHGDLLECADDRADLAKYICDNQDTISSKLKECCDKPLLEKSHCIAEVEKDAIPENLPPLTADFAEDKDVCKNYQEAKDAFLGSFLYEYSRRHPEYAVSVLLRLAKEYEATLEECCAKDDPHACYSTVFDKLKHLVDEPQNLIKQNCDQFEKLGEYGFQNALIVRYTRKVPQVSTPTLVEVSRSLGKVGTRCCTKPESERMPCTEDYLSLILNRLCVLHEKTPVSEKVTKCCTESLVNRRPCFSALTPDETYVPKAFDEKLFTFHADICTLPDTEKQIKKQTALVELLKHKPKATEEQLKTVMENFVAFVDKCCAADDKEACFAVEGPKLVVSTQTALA
Protocol: For clarity, data points for TQ Green reaction with BSA, Cysteine, and PBS were offset by 0.1 units from each other on the y axis. Data points represent the absorbance of reaction mixtures of TQ Green (32 μM) with cysteine (100 μM, blue), BSA (5 mM, green), GSH (20 mM red) and water (black) in PBS (pH 7.4) at 480 nm, the maximum absorption wavelength for TQ Green.
Proteins containing free thiol groups may also react with TQ Green to affect the measurement of GSH levels. On average, the protein concentration inside cells is 3×10^6 molecules/μm^3, which corresponds to a concentration of 5 mM. Assuming there is one free thiol on each protein molecule, 5 mM of bovine serum albumin (BSA) solution should reasonably mimic intracellular proteins because a) BSA has a free thiol on its surface; and b) the molecular weight of BSA (65 kDa) is close to the average molecular weight of intracellular proteins (˜50 kDa). […] Through these experiments and analyses, Applicants can conclude that TQ Green has good specificity towards GSH under physiological conditions.

[3] = Reaction kinetics and reversibility of probe with GSH (UV-Vis)
Protocol: The reaction between TQ Green and GSH is reversible.
The second-order rate constant between TQ Green and GSH is 0.150±0.001M^−1·s^−1. There were no appreciable Abs changes observed after 20 minutes. Following a pause for another 80 minutes to ensure that the equilibrium between TQ Green and GSH was fully established, Applicants added two equivalents of an irreversible Michael acceptor (5,6-dihydro-2H-pyran-2-one) to deplete all the GSH in solution (FIG. 4A).
GSH in PBS was added to a solution of TQ Green in PBS buffer (10 mM, pH 7.4) containing 1% DMSO. The final concentrations of GSH and TQ Green were 10 mM and 16 μM, respectively. The solutions were then monitored continuously with UV-Vis spectrometer (FIGS. 21A-D).

[4] = UV-Vis absorption, fluorescence and quantum yield; assay type: physicochemical; conditions: for Quantum Yield (PBS): λex = 479 nm (TQ Green), 406 nm (TQ Green-GSH); for Quantum Yield (Methanol): Rhodamine 123 as standard
From the text: TQ Green absorbs at 479 nm and fluoresces at 590 nm (λex=488 nm, FIG. 3). The extinction coefficients of TQ Green and TQ Green-GSH at their maximum absorption wavelengths are (2.3±0.2)×10^4 M^−1·cm^−1 (a, =479 nm, Table 2) and (1.6±0.2)×10^4 M^−1·cm^−1 (λmax=407 nm, Table 1), respectively. Upon reacting with GSH, the Abs and Fl peaks shift hypsochromically to 406 and 463 nm (λex=405 nm), respectively. The Abs of TQ Green and TQ Green-GSH (the adduct between TQ Green and GSH) are close to 488 and 405 nm, respectively, which are two commonly used laser wavelengths for confocal microscopes. […]
NMR spectra were recorded on a Varian NMR (^1H at 400 MHz) spectrometer. Chemical shifts (δ) were given in ppm with reference to solvent signals [^1H NMR: CDCl3 (7.26), CD3OD (3.31)]. UV-Vis measurements were performed with 2×10 mm quartz cuvette in Cary 60 UV-is Spectrometer. Fluorescence measurements were performed with the same quartz cuvette in Cary Eclipse Fluorescence Spectrophotometer with an excitation slit of 5 nm, an emission slit of 10 nm and PMT at 650 V. Flash chromatography was performed on a Teledyne ISCO CombiFlashRf200. Olympus FV1000 laser scanning confocal microscope system was used for cell imaging. ESI mass spectrometry was measured on a BrukerMS microTOF ESI, at the Shared Equipment Authority at Rice University. Flow cytometry was performed on BD LSR II Flow Cytometer at BCM core facilities.
As summarized in Table 5, quantum yields of synthesized GSH probes and a GSH adduct with Rhodamine 123 as the standard were analyzed. Quantum yields were determined using a comparative method described previously. The bromine atom on the phenyl ring potentially enhances the push-pull effect of the coumarin-based fluorophore, thus increases the quantum yield.

[5] = test system: cells; experiment: Confocal imaging of probe interacting with cells (cell penetration); assay type: cell-based
Protocol: FIG. 10 provides confocal images at 488 nm channel of TQ Green (acid form, FIG. 10A), and TQ Green-AM (ester form, FIG. 10B) interacting with cells.
All cell lines used in this study were purchased from American Type Culture Collection (ATCC) and grown in DMEM (Gibco, 11965) media supplemented with 10% FBS and 1% 1003 Pen Strep (Gibco). Cells were cultured under a controlled atmosphere (37° C., 5% CO2). Glass dishes were used for cell culture due to confocal scanning requirements. Cells were treated with TQ Green-AM (20 nM-1 μM with 0.0025-1% DMSO in PBS) for 30 minutes, followed by two washing steps with tryptan blue and PBS prior to imaging. Fluorescent images were acquired with 405 nm laser/430-470 nm filter and 488 nm laser/575-620 nm filter. All the microscope settings were kept consistent in each experiment.

[6] = Log D in octanol-PBS (pH 7.4) biphasic system; assay type: physicochemical; conditions: octanol-PBS pH 7.4, read-out: Log D (pH = 7.4)
From the text: To further understand TQ Green distribution between hydrophobic and hydrophilic environments, Applicants measured the Log D values of TQ Green and TQ Green-GSH using an octanol-PBS (pH 7.4) biphasic system (Table 2). […] In addition, Applicants discovered that the absorbance maximum of TQ Green shifts from 480 nm to 455 nm when changing the solvents from PBS to octanol. Applicants hypothesize that if TQ Green is distributed in lipid membranes, the absorbance maximum and fluorescence intensity will change. […] Consistent with the Log D measurements, this experiment also supports the hypothesis that TQ Green accumulates in lipid membranes. Considering the high quantum yield of TQ Green in hydrophobic solvents, lipid enrichment of TQ Green seemingly complicates intracellular GSH quantification. […] However, the Kd′ values may be different under calibration conditions and inside cells, which may introduce a systemic error.

solubility [1]: > 500 µM
Reaction with BSA [2]: little reaction
Abs Max Wavelength ([4]; PBS pH 7.4): 479 nm and 480 nm
Fl Emission Max Wavelength ([4]; PBS pH 7.4, λex = 488 nm (TQ Green), λex = 405 nm (TQ Green-GSH)): 590 nm
Quantum Yield (PBS) [4]: 0.0094±0.0004
Quantum Yield (PBS) ([4]; listed as drawing 19): 0.0094 ± 0.0004
Quantum Yield (Methanol) [4]: 0.16±0.05
Quantum Yield (Methanol) ([4]; listed as drawing 18): 0.16 ± 0.05
Absorbance maximum in octanol ([4]; octanol): 455 nm
Cell penetration (confocal, 488 nm channel) [5]: trapped in the membrane
logD [6]: 0.7
Structure (SMILES): CCN(CC)c1ccc2cc(/C=C/C(=O)c3ccc(C(=O)O)cc3Br)c(=O)oc2c1 [TQ Green]
Time to reach 95% of conversion ([3]; 10 mM GSH in PBS, room temperature, TQ Green 16 μM, probe 3a 10 μM): ~30 min
Time to establish equilibrium with GSH ([3]; 37° C., intracellular environment, extrapolated): 15 to 30 min
Second-Order Rate Constant ([3]; TQ Green and GSH): 0.150 ± 0.001 M⁻¹ s⁻¹
